Data set [1] deals with genotype 1b HCV auto-replicating subgenomic replicon (luc-ubi-neo/ET replicon cells). In words: Replicon assay, luciferase activity in luc-ubi-neo/ET HCV subgenome replicon cells. In kind it is cell-based, Hepatitis C virus. Particulars: for EC50: Hepatitis C virus, 72 h, read-out: HCV replication inhibitory activity EC50; for Selectivity IC50/EC50 / Luciferase activity: Test compound alone; for Luciferase activity: 72 hours, percentage of solvent alone. An excerpt: The inhibitory-effect on HCV replication and the cytotoxicity of a compound of formula (I) of the invention was examined by a replicon assay using HCV subgenome replicon cells.
(§1) The HCV subgenome replicon cells used were luc-ubi-neo/ET replicon cells, having the genotype 1b HCV auto-replicating subgenomic replicon, a luciferase reporter, ubiquitin, a neomycin phosphotransferase coding sequence, and three mutations for cell culturing (Pietschmann, T. et al., J. Virol. 76:4008-4021, 2002). The ET replicon cells were cultured in DMEM containing 10% FBS, 1% penicillin/streptomycin, 1% glutamine, and 250 μg/mL G418 in an incubator at 37° C., 5% CO2. For culturing with a Test compound of formula (I), it was performed under the same conditions in DMEM containing 5% FBS, 1% penicillin/streptomycin and 1% glutamine. The ET replicon cells were cultured in two 96-well plates, at 5000 cell/well, separately. On the following day, the Test compound alone diluting to different concentrations with a maximum concentration of 1.1 μM, was added to one plate, while human recombinant Interferon-α-2b (rIFNα-2b) at a fixed concentration of 0.1 IU/mL was added to another plate with the Test compound, simultaneously. At 72 hours after addition, the luciferase activity indicating amplification of HCV mRNA was measured. The cytotoxicity was measured with a CytoTox-1 Cell Proliferation Assay (Promega Corporation).
The luciferase activities, for the compound of formula (I) alone and for a combination of the compound of formula (I) and rIFNα-2b, were shown in Table 1 as percentage with respect to luciferase activity when using the solvent alone. The HCV replication inhibitory-activity was determined as the concentration which produced 50% inhibition of HCV replicon (EC50), and the cytotoxicity was determined as the concentration which produced 50% reduction in viable cells (IC50), while the selectivity was determined as the value of IC50/EC50; the results are summarized in Table 2.
A general note: In antiviral work, replicon cells carry a viral genome segment that copies itself.

A short description of data set [2]: Cytotoxicity, CytoTox-1 Cell Proliferation Assay in ET replicon cells. It counts as cell-based. Conditions: human, luc-ubi-neo/ET HCV genotype 1b subgenomic replicon cells; Test compound alone, 50% reduction in viable cells, maximum concentration 1.1 μM. As for the experimental part: as §1, with “Corporation). […]” for “Corporation).”
The subject of data set [3] is HCV subgenomic replicon (LucNeo#2 replicon cells). In words: Replicon assay, intracellular luciferase activity in LucNeo#2 replicon cells. In kind it is cell-based, Hepatitis C virus. Particulars: for Luciferase activity: 72 hours, percentage of solvent-treated group; for HCV replication inhibitory-activity (in words): LucNeo#2 replicon cells, 3.3 and 10 μM. An excerpt: The inhibitory-effect on HCV replication and the cytotoxicity of a compound of formula (I) of the invention were examined by a replicon assay method using different HCV subgenomic replicon cells from Example 1, specifically LucNeo#2 replicon cells. The LucNeo#2 replicon cells are reporter cells created with the same concept as the luc-ubi-neo/ET replicon cells used in Test Example 1, and are utilized for analysis of the RNA replication mechanism of HCV or anti-HCV drug evaluation, but the gene sequence differs from that of luc-ubi-neo/ET replicon cells (Biochem. Biophys. Res. Commun. 343 (2006) 879-884).
(§2) LucNeo#2 replicon cells cultured to confluency were recovered by trypsin treatment, and were spread on a collagen-coated plate at a density of 20,000 cells/mL. The cell culture was conducted in an incubator at 37° C., 5% CO2, with 10% FCS/DMEM (containing mixed solution of penicillin-streptomycin, G418 and a non-essential amino acid). After 24 hours, the cells were rinsed and a compound of formula (I) was added as Test compound to final concentrations of 3.3 μM or 10 μM. At 72 hours after addition of the Test compound, the cells of one plate were rinsed, the cells were lysed with M-PER, and the intracellular luciferase activity was measured using a Promega kit. An Alamar Blue solution was also added to cells cultured under the same conditions, and the cytotoxicity was examined.
(§3) The intracellular luciferase activity and the Alamar Blue signal for cytotoxicity at 72 hours after Test compound addition were shown in Table 3 as a percentage with respect to the solvent-treated group.

For a further data set, the system named is LucNeo#2 replicon cells. In words: Cytotoxicity, Alamar Blue in LucNeo#2 replicon cells. In kind it is cell-based. Conditions: 72 hours, percentage of solvent-treated group. As for the experimental part: as §2, §3
In general terms: Resazurin is reduced to fluorescent resorufin, in cell work by metabolically active cells.

For a further data set, the system named is HCV 1b genotype. Description: Lowering effect on serum HCV RNA levels in HCV-infected human hepatocyte-transplanted mice (PXB mice). Particulars: oral; for Change in serum HCV RNA levels, average: day 14 versus day 0. It counts as in vivo, Hepatitis C virus. As for the experimental part:
The lowering effect on serum HCV RNA levels was measured to determine the HCV replication inhibitory-effect of a compound of formula (I) of the invention were determined by measuring the serum HCV RNA levels.
Human hepatocyte-transplanted model mice (PXB mice) were prepared from uPA^+/+/SCID mice as host mice. The uPA^+/+/SCID mice are characterized by a combination of liver damage and serious immune deficiency complications. Commercially available frozen human hepatocytes (BD Biosciences, MA, USA) were grafted by infusion into the spleens of male or female uPA^+/+/SCID mice that had reached a postnatal age of 2 to 4 weeks, to create human hepatocyte-transplanted mice (PXB mice) having at least 70% of the mouse liver parenchymal cells replaced with human hepatocytes. […] HCV 1b genotype-infected patient serum (PhoenixBio) was injected through the orbital socket to a virus titer of 1×10^4 copies/mouse as measured by RT-PCR (Life Technologies Corporation, Carlsbad, USA), for the HCV infection. […] […] The number of mice per group was five. The solvent alone was used as a negative control. Administration was done once per day for 14 consecutive days. With the initial administration as day 0, blood was collected on day 0, 1, 3, 7, 10, 14, 17 and 21, and the serum HCV RNA levels were measured.
The percent change of blood HCV RNA levels in 14 days, which was 24 hours after final dosing (13 day), from those in day 0, which was predose, was calculated for each individual.

[4] abbreviates: used in combination with rIFNα-2b.

“Also recorded” adds a separate entry of the source.

In the case of `COc1cc(/C=C2\CCCN([C@@H](C)c3ccc(F)cc3)C2=O)ccc1-n1cnc(C)c1` [Test compound A, (E)-1-[(1S)-1-(4-fluorophenyl)ethyl]-3-[3-methoxy-4-(4-methyl-1H-imidazol-1-yl)benzylidene]piperidin-2-one], the EC50 – broadly, the midpoint of the concentration-response curve – in data set [1] is 360 nM. In addition, in data set [1], the “Selectivity IC50/EC50” value is recorded as greater than 3.06. Further, the Luciferase activity in data set [1] (0.001 μM) is listed as 87%; in data set [1] (0.003 μM) it was 89%; in data set [1] (0.03 μM), 87%; in data set [1] (0.11 μM), 89%; in data set [1] (0.35 μM) it was 51%; in data set [1] (1.1 μM) it was 21%. In addition, the Luciferase activity in data set [3] (3.3 μM) was 116.60%; in data set [3] (10 μM) it was 42.80%. Besides, the “HCV replication inhibitory-activity (in words)” value in data set [1] (Test compound used alone) is “approximately dose-dependent HCV replication inhibitory-activity; also recorded: potent HCV replication inhibitory-activity at lower concentrations than the concentrations for the cytotoxicity”; in data set [1] (setting [4]), “more potent reduction of HCV replication with dose-dependent manner; also recorded: even more potent HCV replication inhibitory-activity at lower concentrations than the concentrations for the cytotoxicity”; in data set [3], “potent HCV replication inhibitory-activity by reducing the luciferase activity in a dose-dependent manner”. Moreover, the IC50 – broadly, the concentration at which inhibition is half-maximal – at 72 h in data set [2] was greater than 1100 nM. Besides, the “Cytotoxicity (Alamar Blue signal)” value worked out at 100.00% in the data set on LucNeo#2 replicon cells (3.3 μM) and 101.50% in the data set on LucNeo#2 replicon cells (10 μM). Besides, the “Change in serum HCV RNA levels, average” value was determined as 73.0% with HCV 1b genotype (10 mg/kg/day once per day for 14 days), 50.4% in the data set with HCV 1b genotype (30 mg/kg/day once per day for 14 days) and 32.6% in the data set with HCV 1b genotype (100 mg/kg/day once per day for 14 days). The “Serum HCV RNA level (in words)” value in the data set on HCV 1b genotype (14 days) is “dose-dependent reduction in serum HCV RNA level”.

Consider `COc1cc(/C=C2\CC[C@H]3COC[C@@H](c4cc(F)c(F)c(F)c4)N3C2=O)ccc1-n1cnc(C)c1` [Test compound B, (E)-(4R,9aS)-7-[3-methoxy-4-(4-methyl-1H-imidazol-1-yl)benzylidene]-4-(3,4,5-trifluorophenyl)hexahydropyrido[2,1-c][1,4]oxazin-6-one], for which the EC50 in data set [1] came to 310 nM. Besides, the “Selectivity IC50/EC50” value in data set [1] is greater than 3.55. Besides, the Luciferase activity came out at 72% in data set [1] (0.001 μM); 73% in data set [1] (0.003 μM); 62% in data set [1] (0.03 μM); 68% in data set [1] (0.11 μM); 48% in data set [1] (0.35 μM); 30% in data set [1] (1.1 μM). Besides, the Luciferase activity in data set [3] (3.3 μM) was found to be 50.30%; in data set [3] (10 μM), 27.80%. The figures for the “HCV replication inhibitory-activity (in words)” value in data set [1] (Test compound used alone), in data set [1] (setting [4]) and in data set [3] were “approximately dose-dependent HCV replication inhibitory-activity; also recorded: potent HCV replication inhibitory-activity at lower concentrations than the concentrations for the cytotoxicity”, “more potent reduction of HCV replication with dose-dependent manner; also recorded: even more potent HCV replication inhibitory-activity at lower concentrations than the concentrations for the cytotoxicity” and “potent HCV replication inhibitory-activity by reducing the luciferase activity in a dose-dependent manner”, respectively. For the same compound, the IC50 at 72 h in data set [2] is greater than 1100 nM. Further, the “Cytotoxicity (Alamar Blue signal)” value came out at 101.00% in the data set with LucNeo#2 replicon cells (3.3 μM) and 100.75% in the data set on LucNeo#2 replicon cells (10 μM).
